Consider one compound from ChEMBL document CHEMBL5120791, “Triterpenes from Pholiota populnea as Cytotoxic Agents and Chemosensitizers to Overcome Multidrug Resistance of Cancer Cells” (J Nat Prod, 2022).

For one data set, the system named is COLO 205. Put plainly: Cytotoxicity against human COLO 205 cells assessed as reduction in cell viability measured after 24 hrs by MTT assay. The format is functional, cell-based. The conditions noted are these: COLO 205, 24 h.
Data set [1] has as its target ATP-dependent translocase ABCB1 (Homo sapiens, UniProt P08183). As to the kind of experiment: Inhibition of P-gp in human COLO 320 cells assessed as potentiation of doxorubicin-induced cytotoxicity by measuring combination index measured after 72 hrs by checkerboard assay. The format is cell-based. The conditions noted are these: colo 320, 72 h.
Another data set relates to COLO 320. As to the kind of experiment: Cytotoxicity against human COLO 320 cells assessed as reduction in cell viability measured after 24 hrs by MTT assay. The format is functional, cell-based. Particulars: COLO 320, 24 h.

As usually defined, the IC50 is the midpoint of a concentration-inhibition curve.

Sequence of ATP-dependent translocase ABCB1 (P08183 whole entry): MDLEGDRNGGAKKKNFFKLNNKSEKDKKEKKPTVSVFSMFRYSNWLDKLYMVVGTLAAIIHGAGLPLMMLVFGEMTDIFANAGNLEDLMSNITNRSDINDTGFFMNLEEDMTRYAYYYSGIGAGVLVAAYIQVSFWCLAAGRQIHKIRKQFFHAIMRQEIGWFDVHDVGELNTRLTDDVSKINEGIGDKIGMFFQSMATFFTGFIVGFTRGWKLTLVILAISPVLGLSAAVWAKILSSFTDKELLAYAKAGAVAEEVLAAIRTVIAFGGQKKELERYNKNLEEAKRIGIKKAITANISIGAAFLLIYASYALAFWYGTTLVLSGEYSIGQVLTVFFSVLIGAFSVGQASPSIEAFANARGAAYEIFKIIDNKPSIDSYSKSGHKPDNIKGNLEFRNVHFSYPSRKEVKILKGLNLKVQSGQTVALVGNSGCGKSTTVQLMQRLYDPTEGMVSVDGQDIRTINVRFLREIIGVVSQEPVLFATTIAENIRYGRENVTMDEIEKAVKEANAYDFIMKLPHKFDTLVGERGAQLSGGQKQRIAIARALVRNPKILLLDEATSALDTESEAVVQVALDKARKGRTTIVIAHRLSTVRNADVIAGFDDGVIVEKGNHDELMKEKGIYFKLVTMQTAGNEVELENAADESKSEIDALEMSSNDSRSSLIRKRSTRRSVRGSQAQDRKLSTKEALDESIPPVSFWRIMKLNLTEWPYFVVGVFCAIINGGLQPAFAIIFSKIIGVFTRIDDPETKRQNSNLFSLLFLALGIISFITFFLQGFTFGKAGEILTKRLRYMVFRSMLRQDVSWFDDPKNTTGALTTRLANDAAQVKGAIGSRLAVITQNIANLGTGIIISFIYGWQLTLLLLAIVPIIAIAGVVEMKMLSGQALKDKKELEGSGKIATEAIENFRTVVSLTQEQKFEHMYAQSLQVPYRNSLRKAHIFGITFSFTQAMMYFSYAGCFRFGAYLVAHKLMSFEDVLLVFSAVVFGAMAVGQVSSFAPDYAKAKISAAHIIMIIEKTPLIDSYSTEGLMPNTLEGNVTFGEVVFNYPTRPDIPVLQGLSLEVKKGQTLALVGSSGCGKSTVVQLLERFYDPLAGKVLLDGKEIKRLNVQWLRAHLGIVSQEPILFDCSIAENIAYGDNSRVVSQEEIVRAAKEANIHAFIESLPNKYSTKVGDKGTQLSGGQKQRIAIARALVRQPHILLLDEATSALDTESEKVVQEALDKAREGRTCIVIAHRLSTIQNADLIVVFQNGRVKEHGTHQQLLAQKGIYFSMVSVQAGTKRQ

Consider `CC(C)[C@@H](C)/C=C/[C@@H](C)[C@H]1CC[C@H]2C3=CC[C@H]4CC(=O)CC[C@]4(C)[C@H]3CC[C@]12C`, for which the IC50 in the data set with COLO 205 stood at 11.6 µM; in the data set with COLO 320, 8.4 µM. Moreover, the CI50 in data set [1] is 0.521.
